Data published in ChEMBL document CHEMBL4507282, “Data for DCP probe BI-1950” (2021).
Active and inactive are the calls of the source. No cut-off for these calls is given here.

Legend:
[1] = biological target: Serine/threonine-protein kinase MAK (Homo sapiens) (UniProt P20794); conditions: Compound concentration 1000.0 nM
[2] = biological target: SRSF protein kinase 1 (Homo sapiens) (UniProt Q96SB4); conditions: Compound concentration 1000.0 nM
[3] = biological target: RAC-gamma serine/threonine-protein kinase (Homo sapiens) (UniProt Q9Y243); conditions: Compound concentration 1000.0 nM
[4] = biological target: Tyrosine-protein kinase Blk (Homo sapiens) (UniProt P51451); conditions: Compound concentration 1000.0 nM
[5] = biological target: Receptor tyrosine-protein kinase erbB-2 (Homo sapiens) (UniProt P04626); conditions: Compound concentration 1000.0 nM
[6] = biological target: Serine/threonine-protein kinase NIM1 (Homo sapiens) (UniProt Q8IY84); conditions: Compound concentration 1000.0 nM
[7] = biological target: Microtubule-associated serine/threonine-protein kinase 1 (Homo sapiens) (UniProt Q9Y2H9); conditions: Compound concentration 1000.0 nM
[8] = tested on: Mast/stem cell growth factor receptor Kit (Homo sapiens), P10721 [A829P]; conditions: Compound concentration 1000.0 nM
[9] = biological target: Cyclin-dependent kinase 13 (Homo sapiens) (UniProt Q14004); conditions: Compound concentration 1000.0 nM
[10] = biological target: Hepatocyte growth factor receptor (Homo sapiens) (UniProt P08581); conditions: Compound concentration 1000.0 nM
[11] = biological target: Tyrosine-protein kinase Fgr (Homo sapiens) (UniProt P09769); conditions: Compound concentration 1000.0 nM
[12] = biological target: Mitogen-activated protein kinase kinase kinase kinase 5 (Homo sapiens) (UniProt Q9Y4K4); conditions: Compound concentration 1000.0 nM
[13] = tested on: Mast/stem cell growth factor receptor Kit (Homo sapiens), P10721 [D816V]; conditions: Compound concentration 1000.0 nM
[14] = biological target: Mitogen-activated protein kinase 1 (Homo sapiens) (UniProt P28482); conditions: Compound concentration 1000.0 nM
[15] = biological target: Serine/threonine-protein kinase/endoribonuclease IRE1 (Homo sapiens) (UniProt O75460); conditions: Compound concentration 1000.0 nM
[16] = biological target: Serine/threonine-protein kinase SIK3 (Homo sapiens) (UniProt Q9Y2K2); conditions: Compound concentration 1000.0 nM
[17] = biological target: Serine/threonine-protein kinase MRCK gamma (Homo sapiens) (UniProt Q6DT37); conditions: Compound concentration 1000.0 nM
[18] = biological target: Fibroblast growth factor receptor 4 (Homo sapiens) (UniProt P22455); conditions: Compound concentration 1000.0 nM
[19] = biological target: Serine/threonine-protein kinase RIO2 (Homo sapiens) (UniProt Q9BVS4); conditions: Compound concentration 1000.0 nM
[20] = biological target: Dual specificity protein kinase CLK1 (Homo sapiens) (UniProt P49759); conditions: Compound concentration 1000.0 nM
[21] = biological target: Vascular endothelial growth factor receptor 1 (Homo sapiens) (UniProt P17948); conditions: Compound concentration 1000.0 nM
[22] = biological target: Dual specificity mitogen-activated protein kinase kinase 6 (Homo sapiens) (UniProt P52564); conditions: Compound concentration 1000.0 nM
[23] = biological target: Discoidin domain-containing receptor 2 (Homo sapiens) (UniProt Q16832); conditions: Compound concentration 1000.0 nM
[24] = biological target: Bone morphogenetic protein receptor type-2 (Homo sapiens) (UniProt Q13873); conditions: Compound concentration 1000.0 nM
[25] = biological target: Fibroblast growth factor receptor 2 (Homo sapiens) (UniProt P21802); conditions: Compound concentration 1000.0 nM
[26] = biological target: Serine/threonine-protein kinase 16 (Homo sapiens) (UniProt O75716); conditions: Compound concentration 1000.0 nM
[27] = biological target: Cyclin-dependent kinase-like 2 (Homo sapiens) (UniProt Q92772); conditions: Compound concentration 1000.0 nM
[28] = biological target: Serine/threonine-protein kinase DCLK1 (Homo sapiens) (UniProt O15075); conditions: Compound concentration 1000.0 nM
[29] = biological target: Receptor-interacting serine/threonine-protein kinase 4 (Homo sapiens) (UniProt P57078); conditions: Compound concentration 1000.0 nM
[30] = biological target: cAMP-dependent protein kinase catalytic subunit beta (Homo sapiens) (UniProt P22694); conditions: Compound concentration 1000.0 nM
Integrin alpha-L = Integrin alpha-L (Homo sapiens, UniProt P20701); assay: ITGAL binding assay
[31] = tested on: Tyrosine-protein kinase ABL1 (Homo sapiens), P00519 [H396P]; conditions: Compound concentration 1000.0 nM
[32] = biological target: Mitogen-activated protein kinase 11 (Homo sapiens) (UniProt Q15759); conditions: Compound concentration 1000.0 nM
[33] = biological target: Ephrin type-B receptor 1 (Homo sapiens) (UniProt P54762); conditions: Compound concentration 1000.0 nM
[34] = biological target: NUAK family SNF1-like kinase 2 (Homo sapiens) (UniProt Q9H093); conditions: Compound concentration 1000.0 nM
[35] = biological target: SRSF protein kinase 3 (Homo sapiens) (UniProt Q9UPE1); conditions: Compound concentration 1000.0 nM
[36] = biological target: Tyrosine-protein kinase JAK3 (Homo sapiens) (UniProt P52333); conditions: Compound concentration 1000.0 nM
[37] = biological target: Serine/threonine-protein kinase Sgk1 (Homo sapiens) (UniProt O00141); conditions: Compound concentration 1000.0 nM
[38] = biological target: Platelet-derived growth factor receptor alpha (Homo sapiens) (UniProt P16234); conditions: Compound concentration 1000.0 nM
[39] = biological target: Cyclin-dependent kinase 14 (Homo sapiens) (UniProt O94921); conditions: Compound concentration 1000.0 nM
[40] = biological target: Serine/threonine-protein kinase PLK3 (Homo sapiens) (UniProt Q9H4B4); conditions: Compound concentration 1000.0 nM
[41] = biological target: Serine/threonine-protein kinase PAK 6 (Homo sapiens) (UniProt Q9NQU5); conditions: Compound concentration 1000.0 nM
[42] = tested on: Epidermal growth factor receptor (Homo sapiens), P00533 [UNDEFINED MUTATION]; conditions: Compound concentration 1000.0 nM
[43] = biological target: Histamine H3 receptor (Homo sapiens) (UniProt Q9Y5N1); conditions: Compound concentration 10.0 uM
[44] = biological target: Mitogen-activated protein kinase kinase kinase 11 (Homo sapiens) (UniProt Q16584); conditions: Compound concentration 1000.0 nM

Chain of Serine/threonine-protein kinase NIM1 (Homo sapiens) (Q8IY84 whole entry): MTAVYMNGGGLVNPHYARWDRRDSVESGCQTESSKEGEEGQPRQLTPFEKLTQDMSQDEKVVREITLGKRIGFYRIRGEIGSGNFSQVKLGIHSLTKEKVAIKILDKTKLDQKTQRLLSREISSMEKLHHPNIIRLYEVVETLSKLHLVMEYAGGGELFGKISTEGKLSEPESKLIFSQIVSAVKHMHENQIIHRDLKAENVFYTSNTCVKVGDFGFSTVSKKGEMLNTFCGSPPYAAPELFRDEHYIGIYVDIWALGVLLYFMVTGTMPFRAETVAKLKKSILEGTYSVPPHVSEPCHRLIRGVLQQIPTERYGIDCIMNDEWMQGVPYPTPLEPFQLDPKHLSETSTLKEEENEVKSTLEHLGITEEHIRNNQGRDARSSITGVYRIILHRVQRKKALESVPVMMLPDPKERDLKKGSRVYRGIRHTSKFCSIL
Chain of Integrin alpha-L (P20701 whole entry): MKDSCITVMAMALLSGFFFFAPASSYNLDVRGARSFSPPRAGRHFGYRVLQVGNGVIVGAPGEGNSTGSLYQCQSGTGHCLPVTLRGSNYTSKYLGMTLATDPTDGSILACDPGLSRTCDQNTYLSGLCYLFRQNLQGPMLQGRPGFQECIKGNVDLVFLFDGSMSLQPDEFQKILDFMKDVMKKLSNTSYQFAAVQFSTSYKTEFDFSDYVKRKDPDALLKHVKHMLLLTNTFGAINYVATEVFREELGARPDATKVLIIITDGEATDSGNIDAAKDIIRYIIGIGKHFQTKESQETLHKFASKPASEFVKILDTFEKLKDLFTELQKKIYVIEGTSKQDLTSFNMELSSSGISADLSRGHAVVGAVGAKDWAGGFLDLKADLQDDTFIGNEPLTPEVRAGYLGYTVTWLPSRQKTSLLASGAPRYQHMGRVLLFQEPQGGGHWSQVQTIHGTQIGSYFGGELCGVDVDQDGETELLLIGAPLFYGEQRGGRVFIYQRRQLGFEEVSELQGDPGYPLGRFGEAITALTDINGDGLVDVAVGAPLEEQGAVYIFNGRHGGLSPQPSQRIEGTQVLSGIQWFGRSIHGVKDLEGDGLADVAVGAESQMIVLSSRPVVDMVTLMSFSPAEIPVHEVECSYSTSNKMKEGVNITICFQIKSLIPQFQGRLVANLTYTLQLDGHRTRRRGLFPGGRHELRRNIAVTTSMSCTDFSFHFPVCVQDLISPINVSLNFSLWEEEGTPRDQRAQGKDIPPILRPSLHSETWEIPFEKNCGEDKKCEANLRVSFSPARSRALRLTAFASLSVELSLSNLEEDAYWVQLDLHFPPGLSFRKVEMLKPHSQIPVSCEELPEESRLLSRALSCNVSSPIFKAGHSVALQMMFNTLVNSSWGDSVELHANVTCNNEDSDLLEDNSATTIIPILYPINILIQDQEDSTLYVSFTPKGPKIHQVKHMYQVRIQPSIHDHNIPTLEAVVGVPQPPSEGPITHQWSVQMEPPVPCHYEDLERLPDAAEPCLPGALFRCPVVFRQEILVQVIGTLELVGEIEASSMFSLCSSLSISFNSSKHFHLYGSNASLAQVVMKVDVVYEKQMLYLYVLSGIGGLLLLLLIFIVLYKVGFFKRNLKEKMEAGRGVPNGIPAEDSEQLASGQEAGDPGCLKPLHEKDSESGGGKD
Chain of Receptor tyrosine-protein kinase erbB-2 (Homo sapiens) (P04626 whole entry): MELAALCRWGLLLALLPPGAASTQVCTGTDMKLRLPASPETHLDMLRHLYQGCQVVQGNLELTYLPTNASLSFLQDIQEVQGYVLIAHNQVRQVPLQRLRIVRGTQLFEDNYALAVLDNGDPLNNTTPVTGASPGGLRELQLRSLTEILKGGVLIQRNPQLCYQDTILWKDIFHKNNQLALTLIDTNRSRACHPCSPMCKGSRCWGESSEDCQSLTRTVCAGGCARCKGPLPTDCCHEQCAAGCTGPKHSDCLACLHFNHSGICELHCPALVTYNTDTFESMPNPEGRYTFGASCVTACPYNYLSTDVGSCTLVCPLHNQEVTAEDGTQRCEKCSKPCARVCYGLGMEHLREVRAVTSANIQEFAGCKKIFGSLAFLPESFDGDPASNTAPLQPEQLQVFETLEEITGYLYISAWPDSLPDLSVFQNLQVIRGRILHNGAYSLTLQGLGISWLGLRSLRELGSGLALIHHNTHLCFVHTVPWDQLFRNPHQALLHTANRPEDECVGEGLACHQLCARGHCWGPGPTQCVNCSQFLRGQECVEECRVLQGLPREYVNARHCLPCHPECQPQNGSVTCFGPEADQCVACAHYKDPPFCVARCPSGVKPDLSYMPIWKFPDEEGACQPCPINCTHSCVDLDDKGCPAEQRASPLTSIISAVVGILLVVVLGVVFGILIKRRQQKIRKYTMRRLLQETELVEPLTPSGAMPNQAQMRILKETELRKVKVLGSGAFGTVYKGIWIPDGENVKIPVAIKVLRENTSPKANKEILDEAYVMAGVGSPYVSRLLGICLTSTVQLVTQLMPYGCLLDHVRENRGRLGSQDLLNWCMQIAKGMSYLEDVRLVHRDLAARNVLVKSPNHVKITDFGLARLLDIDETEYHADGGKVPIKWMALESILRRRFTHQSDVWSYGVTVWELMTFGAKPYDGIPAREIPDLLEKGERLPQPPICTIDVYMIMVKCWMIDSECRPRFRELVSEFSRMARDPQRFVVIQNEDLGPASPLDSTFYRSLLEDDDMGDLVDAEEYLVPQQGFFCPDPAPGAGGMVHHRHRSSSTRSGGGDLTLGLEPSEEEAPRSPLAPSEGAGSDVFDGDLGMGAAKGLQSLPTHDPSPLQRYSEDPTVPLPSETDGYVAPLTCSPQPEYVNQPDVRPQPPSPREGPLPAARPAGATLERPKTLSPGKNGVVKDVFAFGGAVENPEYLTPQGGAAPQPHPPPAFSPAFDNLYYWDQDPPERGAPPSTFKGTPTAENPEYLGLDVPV
Chain of Serine/threonine-protein kinase PAK 6 (Homo sapiens) (Q9NQU5 whole entry, looked up): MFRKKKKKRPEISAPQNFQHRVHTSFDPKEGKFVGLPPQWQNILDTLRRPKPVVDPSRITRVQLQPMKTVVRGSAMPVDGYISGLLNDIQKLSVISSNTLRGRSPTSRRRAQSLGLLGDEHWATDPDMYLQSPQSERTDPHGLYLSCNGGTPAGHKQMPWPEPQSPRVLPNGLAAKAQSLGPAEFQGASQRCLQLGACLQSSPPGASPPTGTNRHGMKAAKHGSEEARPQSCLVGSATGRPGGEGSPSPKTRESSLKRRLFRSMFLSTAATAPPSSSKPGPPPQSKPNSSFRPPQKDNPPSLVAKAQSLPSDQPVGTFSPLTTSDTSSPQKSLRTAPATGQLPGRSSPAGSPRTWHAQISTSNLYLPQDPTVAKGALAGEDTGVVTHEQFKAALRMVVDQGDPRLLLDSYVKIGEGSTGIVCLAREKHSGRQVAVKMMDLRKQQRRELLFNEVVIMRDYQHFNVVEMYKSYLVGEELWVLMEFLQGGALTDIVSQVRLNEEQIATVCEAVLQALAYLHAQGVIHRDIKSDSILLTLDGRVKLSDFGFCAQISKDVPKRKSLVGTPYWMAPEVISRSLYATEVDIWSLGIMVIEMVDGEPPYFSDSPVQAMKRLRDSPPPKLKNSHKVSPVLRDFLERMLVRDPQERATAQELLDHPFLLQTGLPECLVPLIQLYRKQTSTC
Chain of Mast/stem cell growth factor receptor Kit (Homo sapiens), P10721 [D816V] (P10721 whole entry D816V): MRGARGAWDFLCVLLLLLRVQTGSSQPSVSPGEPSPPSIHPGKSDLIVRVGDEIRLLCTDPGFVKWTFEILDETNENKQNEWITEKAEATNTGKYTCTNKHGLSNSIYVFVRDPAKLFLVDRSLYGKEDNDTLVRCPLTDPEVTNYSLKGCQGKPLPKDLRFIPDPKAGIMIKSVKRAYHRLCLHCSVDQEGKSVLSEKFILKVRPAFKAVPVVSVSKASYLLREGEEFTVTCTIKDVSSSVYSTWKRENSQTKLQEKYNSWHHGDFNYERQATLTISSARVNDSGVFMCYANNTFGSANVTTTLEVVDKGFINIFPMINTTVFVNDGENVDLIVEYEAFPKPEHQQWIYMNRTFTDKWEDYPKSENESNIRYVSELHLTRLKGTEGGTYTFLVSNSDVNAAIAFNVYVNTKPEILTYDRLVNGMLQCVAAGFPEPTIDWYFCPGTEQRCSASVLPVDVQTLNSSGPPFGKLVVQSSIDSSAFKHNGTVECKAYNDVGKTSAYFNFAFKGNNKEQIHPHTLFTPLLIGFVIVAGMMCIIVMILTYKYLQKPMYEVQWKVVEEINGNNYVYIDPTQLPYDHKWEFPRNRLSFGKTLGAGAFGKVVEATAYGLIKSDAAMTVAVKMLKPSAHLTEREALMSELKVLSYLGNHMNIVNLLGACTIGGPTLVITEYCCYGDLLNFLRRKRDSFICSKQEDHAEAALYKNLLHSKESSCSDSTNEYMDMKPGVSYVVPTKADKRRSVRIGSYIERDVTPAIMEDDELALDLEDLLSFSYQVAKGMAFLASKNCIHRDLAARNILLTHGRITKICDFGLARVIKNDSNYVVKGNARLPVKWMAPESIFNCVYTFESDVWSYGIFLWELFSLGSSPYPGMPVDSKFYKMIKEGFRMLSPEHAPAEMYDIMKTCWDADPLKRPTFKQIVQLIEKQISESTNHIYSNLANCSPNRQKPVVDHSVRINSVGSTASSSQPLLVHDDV
Chain of Histamine H3 receptor (Homo sapiens) (Q9Y5N1 whole entry): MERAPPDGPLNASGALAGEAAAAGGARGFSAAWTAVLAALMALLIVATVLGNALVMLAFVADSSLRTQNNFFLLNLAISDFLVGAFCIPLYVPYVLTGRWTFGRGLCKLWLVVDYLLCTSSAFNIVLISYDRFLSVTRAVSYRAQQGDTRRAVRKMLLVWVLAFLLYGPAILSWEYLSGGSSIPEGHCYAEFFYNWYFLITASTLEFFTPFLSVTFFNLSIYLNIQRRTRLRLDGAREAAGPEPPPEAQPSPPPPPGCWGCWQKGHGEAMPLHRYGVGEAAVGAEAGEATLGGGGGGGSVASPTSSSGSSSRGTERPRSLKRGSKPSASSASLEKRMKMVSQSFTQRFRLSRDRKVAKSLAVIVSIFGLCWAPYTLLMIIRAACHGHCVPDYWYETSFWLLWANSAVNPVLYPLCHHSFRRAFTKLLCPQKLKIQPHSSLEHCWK
Chain of Mast/stem cell growth factor receptor Kit (Homo sapiens), P10721 [A829P] (P10721 whole entry A829P): as the sequence (P10721 whole entry D816V) above, with V816D, A829P counted along it

SMILES: C[C@H](NC(=O)c1cnc2n1[C@](C)(Cc1ccc(C#N)cc1)C(=O)N2c1cc(Cl)c(F)c(Cl)c1)C(=O)NC1(c2ccccn2)CC1 [BI 1950]
- residual activity [1]: 100%
- residual activity [2]: 81%
- residual activity [3]: 60%
- residual activity [4]: 98%
- residual activity [5]: 100%
- residual activity [6]: 100%
- residual activity [7]: 100%
- residual activity [8]: 100%
- residual activity [9]: 100%
- residual activity [10]: 100%
- residual activity [11]: 100%
- residual activity [12]: 94%
- residual activity [13]: 100%
- residual activity [14]: 100%
- residual activity [15]: 96%
- residual activity [16]: 76%
- residual activity [17]: 100%
- residual activity [18]: 100%
- residual activity [19]: 100%
- residual activity [20]: 86%
- residual activity [21]: 100%
- residual activity [22]: 80%
- residual activity [23]: 100%
- residual activity [24]: 100%
- residual activity [25]: 100%
- residual activity [26]: 100%
- residual activity [27]: 100%
- residual activity [28]: 89%
- residual activity [29]: 100%
- residual activity [30]: 75%
- Kd (Integrin alpha-L): 9 nM (active)
- residual activity [31]: 83%
- residual activity [32]: 100%
- residual activity [33]: 85%
- residual activity [34]: 100%
- residual activity [35]: 100%
- residual activity [36]: 100%
- residual activity [37]: 100%
- residual activity [38]: 100%
- residual activity [39]: 100%
- residual activity [40]: 81%
- residual activity [41]: 96%
- residual activity [42]: 82%
- inhibition [43]: 1.43%
- residual activity [44]: 100%

SMILES: C[C@@]1(Cc2ccc(C#N)cc2)C(=O)N(c2cc(Cl)cc(Cl)c2)c2ncc(C(=O)NC3(c4nc(C5CCC5)no4)CC3)n21 [BI 9446]
- residual activity [1]: 100%
- residual activity [2]: 94%
- residual activity [3]: 100%
- residual activity [4]: 100%
- residual activity [5]: 100%
- residual activity [6]: 100%
- residual activity [7]: 100%
- residual activity [8]: 100%
- residual activity [9]: 100%
- residual activity [10]: 100%
- residual activity [11]: 100%
- residual activity [12]: 93%
- residual activity [13]: 100%
- residual activity [14]: 100%
- residual activity [15]: 82%
- residual activity [16]: 98%
- residual activity [17]: 100%
- residual activity [18]: 96%
- residual activity [19]: 100%
- residual activity [20]: 100%
- residual activity [21]: 99%
- residual activity [22]: 80%
- residual activity [23]: 100%
- residual activity [24]: 100%
- residual activity [25]: 100%
- residual activity [26]: 100%
- residual activity [27]: 100%
- residual activity [28]: 100%
- residual activity [29]: 100%
- residual activity [30]: 100%
- Kd (Integrin alpha-L): > 1000 nM (not active)
- residual activity [31]: 100%
- residual activity [32]: 100%
- residual activity [33]: 87%
- residual activity [34]: 100%
- residual activity [35]: 100%
- residual activity [36]: 100%
- residual activity [37]: 100%
- residual activity [38]: 100%
- residual activity [39]: 100%
- residual activity [40]: 100%
- residual activity [41]: 100%
- residual activity [42]: 58%
- inhibition [43]: 20%
- residual activity [44]: 100%
